Assay results from publication PMC11483813, “Bombesin-Targeted Delivery of β-Carboline-Based Ir(III) and Ru(II) Photosensitizers for a Selective Photodynamic Therapy of Prostate Cancer” (Inorganic Chemistry, 2024).
Values joined by “and” are separate entries in the source; they are usually repeats but may differ in a detail not shown here. Identical values can stand only once. Residues, ends and D or L forms follow the SMILES beside them. *: point of attachment. X1 = Cn1c2ccccc2c2ccnc(-c3ccc(/C=C/C(=O)*)cn3)c21

Key:
PC-3 cells = assay: Clonogenic assay; format: cell-based, human; settings: 5 μM, blue light irradiation, 10 days, versus control cells
Protocol: The effect of the metallopeptides Ir-BN and Ru-BN as well as of the complexes Ir-H and Ru-H on the viability of PC-3 cells was next investigated through clonogenic assays, which determine the fraction of cells that survive treatment and retain the ability to generate new colonies.[56] This is a crucial feature of metastatic cancer cells, which need to proliferate in distant tissues to create secondary tumors. For this purpose, PC-3 cells were treated with the compounds at an equimolar concentration of 5 μM with or without photoactivation with blue light. Ten days later, the number of cells that survived and were able to grow and form colonies was assessed in comparison to control cells. Cells treated with cisplatin were used as a positive control.
Figure 8 Clonogenic assay. PC-3 cells were treated with the indicated compounds at 5 μM in the dark and with blue light irradiation. Control cells were treated with the medium alone. Cisplatin was used as a positive control. Cells were incubated for 10 days to allow colony formation. (A) Images of the colonies. (B) Bar charts representing the percentage of colonies versus control cells after each treatment (mean ± SD of 3 experiments). ** p < 0.01; *** p < 0.001 versus control cells.
PC-3 cells were seeded at a density of 100000 cells per well in 12-well plates and allowed to adhere for 24 h. The cells were treated with the compounds […] for 4 h and subsequently irradiated with blue light or kept in the dark for one hour. The treatments were then removed, and the cells were washed with PBS, harvested by trypsinization, and counted using a Novocyte flow cytometer (Agilent Technologies). Subsequently, 3000 cells were seeded in 5 cm culture dishes and incubated for 10 days to allow colonies to form. A colony was defined to consist of at least 50 cells. Cells treated with cisplatin (5 μM) were used as a positive control, and cells treated with the culture medium alone were used as a negative control. […] Each compound was evaluated in triplicate.

[1] = Emission and photophysical properties; format: physicochemical; settings: H2O:DMSO (99:1), 25 °C, nitrogen atmosphere; for λem: λex 405 nm (Ir) or 450 nm (Ru)
Protocol: The emission spectra of the metal complexes in deoxygenated solutions of H2O:DMSO (99:1, v:v, 10^–5 M) were recorded at 25 °C, using λex of 405 nm for Ir-Me/Ir-H and λex of 450 nm for Ru-Me/Ru-H (Figure 3). […] Moreover, Ir-Me/Ru-Me featured lower emission intensities compared to Ir-H/Ru-H, respectively.
The excited state lifetimes (τ) and the photoluminescence quantum yields were also determined for the new metal complexes (Table 2). […] These values compare well with those of similar complexes and are compatible with a triplet nature for the emissive states. The photoluminescence quantum yields (ΦPL) of Ir(III)/Ru(II) were very low with values ranging from 1.1 to 4.13%.
All synthetic manipulations for Ir(III) and Ru(II) complexes were carried out under an atmosphere of dry, oxygen-free nitrogen using standard Schlenk techniques. The solvents were dried and distilled under a nitrogen atmosphere before use. Elemental analyses were performed with a Thermo Fisher Scientific EA Flash 2000 Elemental Microanalyzer. UV–vis absorption was measured in a Jasco V-750 UV–visible spectrophotometer. Fluorescence steady-state and lifetime measurements were performed in an FLS980 (Edinburgh Instruments) fluorimeter with Xenon Arc Lamp 450 W and TCSPC laser, respectively. Photoluminescence quantum yields was determined by using FLS980 (Edinburgh Instruments) with Xenon Arc Lamp 450 W and Red PMT Sphere as a detector. HR-ESI(+) mass spectra were recorded with an Agilent LC-MS system (1260 Infinity LC/6545 Q-TOF MS spectrometer) using dichloromethane (DCM) as a sample solvent and H2O (0.1% formic acid)/MeOH (0.1% formic acid) and 30:70 as the mobile phase. The experimental m/z values are expressed in Da and were compared with the m/z values for monoisotopic fragments. […] Chemical shift values (δ) are reported in ppm and coupling constants (J) in hertz. The splitting of proton resonances in the reported ^1H NMR data is defined as s = singlet, d = doublet, t = triplet, q = quartet, m = multiplet, and bs = broad singlet. 2D NMR spectra were recorded using standard pulse sequences. All NMR data processing was carried out using MestReNova version 10.0.2. […]
an integrating sphere. For the determination of the luminescence lifetime, the fluorescence decay was measured on a FLS980 spectrofluorometer equipped with a TSCPC laser (Ir(III) complexes: λ ex = 405 nm; Ru(II) complexes: λ ex = 450 nm) and a REDPMT detector. The F980 spectrometer operating software was used to collect and process luminescence lifetime data. […]
Photocatalytic oxidation of NADH. […]
A decrease in the absorption band with maxima at 338 nm was considered to confirm the photocatalytic oxidation of NADH into NAD+. […]
Both phases were then separated. Next, approximately 0.1 mg of the corresponding photosensitizer was dissolved in 1 mL of PBS-saturated n-octanol. Subsequently, 1 mL of octanol-saturated PBS was added, and the mixture was stirred vigorously at room temperature for 24 h. The two layers were separated carefully, and the absorbance of each layer was determined at the respective local maximum located around 425 nm. The log P oct/PBS values were determined as follows: […]

## CC(C)C[C@H](NC(=O)[C@H](CC(C)C)NC(=O)[C@H](Cc1c[nH]cn1)NC(=O)CNC(=O)[C@@H](NC(=O)[C@H](C)NC(=O)[C@H](Cc1c[nH]c2ccccc12)NC(=O)[C@H](CCC(N)=O)NC(=O)[C@H](CC(N)=O)NC(=O)CNC(=O)[C@H](CC(C)C)NC(=O)[C@H](CCCNC(=N)N)NC(=O)[C@H](CCC(N)=O)NC(=O)/C=C/c1ccc(-c2nccc3c4ccccc4n(C)c23)nc1)C(C)C)C(N)=O [Ir-BN] (X1-QRLGNQWAVGHLL-NH2)
PC-3 cells
  decrease in number of colonies: 34.7%

## Cn1c2ccccc2c2ccnc(-c3ccc(/C=C/C(=O)O)cn3)c21.[Cl-].[Ir+3].[c-]1ccccc1-c1ccccn1.[c-]1ccccc1-c1ccccn1 [Ir-H]
PC-3 cells
  decrease in number of colonies: 27.3%
[1]
  ΦPL: 4.13%
  τ [contribution (%)], first or only component: 23 ns and 23 [51] ns
  τ [contribution (%)], second component: 145 ns and 145 [49] ns
  λem: 651 nm

## COC(=O)/C=C/c1ccc(-c2nccc3c4ccccc4n(C)c23)nc1.[Cl-].[Ir+3].[c-]1ccccc1-c1ccccn1.[c-]1ccccc1-c1ccccn1 [Ir-Me]
[1]
  ΦPL: 3.50%
  τ [contribution (%)], first or only component: 2 ns and 2 [20] ns
  τ [contribution (%)], second component: 93 ns and 93 [80] ns
  λem: 676 nm

## Cn1c2ccccc2c2ccnc(-c3ccc(/C=C/C(=O)O)cn3)c21.[Cl-].[Cl-].[Ru+2].c1ccc(-c2ccccn2)nc1.c1ccc(-c2ccccn2)nc1 [Ru-H]
PC-3 cells
  decrease in number of colonies: No effect
[1]
  ΦPL: 3.13%
  τ [contribution (%)], first or only component: 186 ns
  λem: 688 nm
